Emax and EC50 data for 18 compounds are collected here from patent US8846951B2 (AbbVie Inc., priority 2009, dated 2014).

Where two headings read alike, the source gives them in different places.

Usually Emax stands for the maximal effect, on the per cent scale that the assay sets. As usually defined, the EC50 is the concentration that produces a half-maximal response.

One assay has as its target T1, 5HT2B receptors (Homo sapiens, UniProt P41595).
T1 construct: expressed in transfected cells; host or cells: CHO-K1 cells
As to the kind of experiment: Human 5-HT2B functional high throughput screening assay in CHO-K1 cells (calcium flux). The format is cell-based. The following applies: for EC50: CHO-K1 cells, calcium flux. In a few lines:
(§1)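 FLIPR calcium readout, ex 480/em 530 nm, 25 °C, 3 min post-addition; agonist response normalized to serotonin, 4-parameter fit → EC50, Emax (% serotonin). Cells: frozen CHO-K1 stable lines, serum-free overnight, Ca4 dye + 2.5 mM probenecid, 60 min RT dark.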
In general terms: Calcium flux is commonly read through the fluorescence of an indicator in the cells.

A further assay addresses T2, 5HT2C receptors (Homo sapiens, UniProt P28335).
T2 sequence (P28335 33-458): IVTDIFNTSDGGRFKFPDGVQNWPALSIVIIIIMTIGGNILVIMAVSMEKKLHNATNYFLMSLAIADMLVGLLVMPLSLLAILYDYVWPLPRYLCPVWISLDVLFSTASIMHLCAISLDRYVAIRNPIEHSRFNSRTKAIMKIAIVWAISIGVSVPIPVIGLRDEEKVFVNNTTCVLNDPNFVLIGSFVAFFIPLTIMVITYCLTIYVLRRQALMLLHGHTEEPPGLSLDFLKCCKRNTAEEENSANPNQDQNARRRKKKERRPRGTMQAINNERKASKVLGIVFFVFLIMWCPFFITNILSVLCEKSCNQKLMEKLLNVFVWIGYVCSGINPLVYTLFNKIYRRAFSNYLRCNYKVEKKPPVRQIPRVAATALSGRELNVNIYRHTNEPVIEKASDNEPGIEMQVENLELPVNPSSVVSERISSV
As to the kind of experiment: Human 5-HT2C functional high throughput screening assay in CHO-K1 cells (calcium flux). Type of assay: cell-based. Also noted: expressed in transfected cells; host or cells: CHO-K1 cells. The note with it: for EC50: CHO-K1 cells, calcium flux; for Emax: CHO-K1. The procedure, abridged: as §1

Where [1] appears, read: 5-HT2B agonist activity, read-out: EC50.
Where [2] appears, read: 5-HT2C agonist activity, read-out: EC50.
[3] abbreviates: 5-HT2B, maximum functional response as percentage relative to the effect of serotonin.
The mark [4] stands for this setting: 5-HT2C, maximum functional response as percentage relative to the effect of serotonin.
Setting [5] is: 5-HT2C, maximum functional response as percentage relative to the effect of serotonin, read-out: Emax.

T1 sequence (P41595 whole entry): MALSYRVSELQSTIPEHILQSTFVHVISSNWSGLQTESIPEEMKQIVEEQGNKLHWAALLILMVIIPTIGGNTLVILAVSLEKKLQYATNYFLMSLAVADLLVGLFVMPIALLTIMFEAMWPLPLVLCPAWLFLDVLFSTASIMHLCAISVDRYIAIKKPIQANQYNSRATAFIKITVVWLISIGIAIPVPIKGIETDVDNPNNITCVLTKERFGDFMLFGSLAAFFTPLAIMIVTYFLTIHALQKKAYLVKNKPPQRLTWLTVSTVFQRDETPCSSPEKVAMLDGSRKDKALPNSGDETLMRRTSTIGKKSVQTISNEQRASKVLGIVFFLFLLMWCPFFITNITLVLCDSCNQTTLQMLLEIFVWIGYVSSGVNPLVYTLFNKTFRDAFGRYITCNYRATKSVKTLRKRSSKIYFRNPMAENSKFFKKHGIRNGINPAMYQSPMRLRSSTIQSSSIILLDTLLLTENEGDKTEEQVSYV

On to `CC(C)COc1ccc2c(c1)C(=O)NC[C@@H]1CN(CCF)C[C@@H]21` (relative stereo) [Example 380, Trans-2-(2-fluoroethyl)-8-isobutoxy-2,3,3a,4,5,10b-hexahydropyrrolo[3,4-d][2]benzazepin-6(1H)-one], for which the Emax result on 5HT2B receptors was “inactive”; at 5HT2C receptors, 75%. Also, the EC50 on 5HT2B receptors (setting [1]) was over 10000 nM; on 5HT2C receptors (setting [2]), 300 nM.

Take `CN1C[C@H]2CNC(=O)c3cc(C4CCCCC4)ccc3[C@@H]2C1` (relative stereo) [Example 204, Trans-8-cyclohexyl-2-methyl-1,2,3,3a,4,5-hexahydrobenzo[e]pyrrolo[3,4-c]azepin-6(10bH)-one]: the EC50 on 5HT2B receptors (setting [1]) was over 10000 nM; at 5HT2C receptors (setting [2]) it was 500 nM. Further, the Emax entry at 5HT2B receptors (setting [3]) is “inactive”; at 5HT2C receptors (setting [4]) it was 80%.

Consider `Cc1cccc(-c2ccc3c(c2)C(=O)NC[C@@H]2CN(C)C[C@@H]32)c1` (relative stereo) [Example 81, Trans-2-methyl-8-m-tolyl-1,2,3,3a,4,5-hexahydrobenzo[e]pyrrolo[3,4-c]azepin-6(10bH)-one], for which the EC50 on 5HT2B receptors (setting [1]) is over 10000 nM; on 5HT2C receptors (setting [2]), 1.7 nM. Also, the Emax result on 5HT2B receptors (setting [3]) was “inactive”; on 5HT2C receptors (setting [5]), over 120%.

Take `COc1ccc(-c2ccc3c(c2)C(=O)NC[C@@H]2CN(C)C[C@@H]32)cc1` (relative stereo) [Example 131, Trans-8-(4-methoxyphenyl)-2-methyl-1,2,3,3a,4,5-hexahydrobenzo[e]pyrrolo[3,4-c]azepin-6(10bH)-one]: the EC50 at 5HT2B receptors (setting [1]) is over 10000 nM. Also, the Emax result on 5HT2B receptors (setting [3]) was “inactive”; on 5HT2C receptors (setting [5]) it was over 120%.

Regarding `Cc1c(Cl)cccc1S(=O)(=O)N1Cc2cccnc2[C@@H]2CNC[C@H]2C1` (relative stereo) [Example 342, Trans-6-[(3-chloro-2-methylphenyl)sulfonyl]-5,6,7,7a,8,9,10,10a-octahydropyrido[3,2-c]pyrrolo[3,4-e]azepine], the EC50 on 5HT2B receptors (setting [1]) amounted to 300 nM; on 5HT2C receptors (setting [2]), 60 nM. In addition, the Emax stood at 40% on 5HT2B receptors (CHO-K1, 5-HT2B, maximum functional response as percentage relative to the effect of serotonin, read-out: Emax) and 90% on 5HT2C receptors (setting [5]).

Take `CN1C[C@H]2CNC(=O)c3cc(-c4cccc(S(C)(=O)=O)c4)ccc3[C@@H]2C1` (relative stereo) [Example 84, Trans-2-methyl-8-(3-(methylsulfonyl)phenyl)-1,2,3,3a,4,5-hexahydrobenzo[e]pyrrolo[3,4-c]azepin-6(10bH)-one]: at 5HT2B receptors (setting [1]), the EC50 is over 10000 nM. For the same compound, the Emax result on 5HT2B receptors (setting [3]) was “inactive”; on 5HT2C receptors (setting [5]), over 120%.

`O=C1NC[C@@H]2CN(Cc3ccccc3)C[C@H]2c2ccc(-c3nnco3)cc21` (relative stereo) [Example 136, Trans-2-benzyl-8-(1,3,4-oxadiazol-2-yl)-1,2,3,3a,4,5-hexahydrobenzo[e]pyrrolo[3,4-c]azepin-6(10bH)-one]: the results for the EC50 on 5HT2B receptors (setting [1]) and on 5HT2C receptors (setting [2]) were over 10000 nM and 2000 nM, respectively. Besides, the Emax result on 5HT2B receptors (setting [3]) was “inactive”; at 5HT2C receptors (setting [5]), 110%.

As to `CN1C[C@@H]2CNC(=O)c3cc(OCc4cc(F)cc(F)c4)ccc3[C@H]2C1` [Example 208, (3aS,10bS)-8-(3,5-Difluorobenzyloxy)-2-methyl-1,2,3,3a,4,5-hexahydrobenzo[e]pyrrolo[3,4-c]azepin-6(10bH)-one], the EC50 was over 10000 nM at 5HT2B receptors (setting [1]) and 2 nM at 5HT2C receptors (setting [2]). Further, the Emax entry was “inactive” at 5HT2B receptors (setting [3]) and over 120% at 5HT2C receptors (setting [5]).

On to `CN1C[C@H]2CNC(=O)c3cc(-c4cccc(C=O)c4)ccc3[C@@H]2C1` (relative stereo) [Example 198, Trans-3-(2-methyl-6-oxo-1,2,3,3a,4,5,6,10b-octahydrobenzo[e]pyrrolo[3,4-c]azepin-8-yl)benzaldehyde], for which the EC50 is over 10000 nM on 5HT2B receptors (setting [1]) and 9 nM on 5HT2C receptors (setting [2]). Moreover, the results for the Emax entry at 5HT2B receptors (setting [3]) and at 5HT2C receptors (setting [5]) were “inactive” and over 120%, respectively.

With `CN1C[C@H]2CNC(=O)c3cc(-c4cccnc4)ccc3[C@@H]2C1` (relative stereo) [Example 143, Trans-2-methyl-8-(pyridin-3-yl)-1,2,3,3a,4,5-hexahydrobenzo[e]pyrrolo[3,4-c]azepin-6(10bH)-one], the EC50 was over 10000 nM at 5HT2B receptors (setting [1]) and 300 nM at 5HT2C receptors (setting [2]). Also, the results for the Emax entry on 5HT2B receptors (setting [3]) and on 5HT2C receptors (setting [4]) were “inactive” and over 120%, respectively.

Consider `Clc1cccc2c1OCC[C@H]1CNC[C@@H]21` (relative stereo) [Example 295, Cis-7-chloro-2,3,3a,4,5,10b-hexahydro-1H-[1]benzoxepino[4,5-c]pyrrole], for which the Emax was 40% on 5HT2B receptors (CHO-K1) and 100% on 5HT2C receptors (setting [4]). Moreover, the EC50 amounted to 60 nM at 5HT2B receptors (EC50, 5-HT2B agonist activity) and 10 nM at 5HT2C receptors (EC50, 5-HT2C agonist activity).

As for `O=C1NC[C@@H]2CNC[C@H]2c2cccnc21` (relative stereo) [Example 157, Trans-1,2,3,3a,4,5-hexahydropyrido[3,2-e]pyrrolo[3,4-c]azepin-6(10bH)-one], the EC50 at 5HT2B receptors (setting [1]) is over 10000 nM; at 5HT2C receptors (setting [2]), 3000 nM. Moreover, the Emax result on 5HT2B receptors (setting [3]) is “inactive”; at 5HT2C receptors (setting [4]), 110%.

Consider `CN1C[C@H]2CNC(=O)c3cc(-c4ccc5c(c4)OCC5)ccc3[C@@H]2C1` (relative stereo) [Example 324, Trans-8-(2,3-dihydro-1-benzofuran-6-yl)-2-methyl-2,3,3a,4,5,10b-hexahydropyrrolo[3,4-d][2]benzazepin-6(1H)-one], for which the values for the EC50 on 5HT2B receptors (setting [1]) and on 5HT2C receptors (setting [2]) were over 10000 nM and 3 nM, respectively. The Emax result was “inactive” at 5HT2B receptors (setting [3]) and 85% at 5HT2C receptors (setting [5]).

Consider `CN1C[C@@H]2CCOc3ccccc3[C@H]2C1` [Example 235, (3aR,10bS)-2-Methyl-2,3,3a,4,5,10b-hexahydro-1H-[1]benzoxepino[4,5-c]pyrrole], for which the Emax was 45% on 5HT2B receptors (CHO-K1) and 120% on 5HT2C receptors (setting [4]). Moreover, the EC50 at 5HT2B receptors (EC50, 5-HT2B agonist activity) came to 100 nM; on 5HT2C receptors (EC50, 5-HT2C agonist activity), 40 nM.

As for `CC(C)c1ccc(-c2ccc3c(c2)C(=O)NC[C@@H]2CN(C)C[C@@H]32)cc1` (relative stereo) [Example 138, Trans-8-(4-isopropylphenyl)-2-methyl-1,2,3,3a,4,5-hexahydrobenzo[e]pyrrolo[3,4-c]azepin-6(10bH)-one], the EC50 is over 10000 nM at 5HT2B receptors (setting [1]) and 100 nM on 5HT2C receptors (setting [2]). The figures for the Emax result on 5HT2B receptors (setting [3]) and at 5HT2C receptors (setting [5]) were “inactive” and over 120%, respectively.

Take `Clc1cc(Br)c2c(c1)[C@H]1CNC[C@@H]1CCO2` (relative stereo) [Example 394, Trans-7-bromo-9-chloro-2,3,3a,4,5,10b-hexahydro-1H-[1]benzoxepino[4,5-c]pyrrole]: the Emax came to 45% at 5HT2B receptors (CHO-K1) and 90% at 5HT2C receptors (setting [4]). Further, the EC50 worked out at 100 nM at 5HT2B receptors (EC50, 5-HT2B agonist activity) and 20 nM on 5HT2C receptors (EC50, 5-HT2C agonist activity).

Take `COc1ccccc1CCOc1ccc2c(c1)C(=O)NC[C@@H]1CNC[C@@H]21` (relative stereo) [Example 173, Trans-8-(2-methoxyphenethoxy)-1,2,3,3a,4,5-hexahydrobenzo[e]pyrrolo[3,4-c]azepin-6(10bH)-one]: the EC50 at 5HT2B receptors (setting [1]) is over 10000 nM; on 5HT2C receptors (setting [2]) it was 20 nM. For the same compound, the Emax entry at 5HT2B receptors (setting [3]) was “inactive”; at 5HT2C receptors (setting [5]), over 120%.

Consider `CN1C[C@H]2CNC(=O)c3cc(/C=C/C4CC4)ccc3[C@@H]2C1` (relative stereo) [Example 305, Trans-8-[(E)-2-cyclopropylvinyl]-2-methyl-2,3,3a,4,5,10b-hexahydropyrrolo[3,4-d][2]benzazepin-6(1H)-one], for which the Emax entry is “inactive” on 5HT2B receptors (setting [3]) and 90% on 5HT2C receptors (setting [4]). The EC50 is over 10000 nM at 5HT2B receptors (EC50, 5-HT2B agonist activity) and 6 nM on 5HT2C receptors (EC50, 5-HT2C agonist activity).
